According to US9468602B2, “Pharmaceutical microemulsion for preventing supramolecular aggregation of amphiphilic molecules” (AZAD Pharma AG, priority 2009, dated 2016):

Test: Dynamic Laser Light Scattering (DLLS) analysis of supramolecular aggregation
Format: physicochemical
Method: Dynamic Laser Light Scattering (DLLS) was carried out on a Zetasizer Nano S from Malvern Instruments. DLLS is used for measuring the size of the microemulsion oil droplets or size of the supramolecular aggregates (% distribution function modality). Further characterization of supramolecular aggregation is given by the correlation coefficient function modality analysis of the Dynamic Laser Light Scattering.
In order to monitor the level of molecular aggregation in solution, Dynamic Laser Light Scattering (DLLS) has been used. Using this technique, it is not necessary to dilute the sample.

CC(=O)O[C@@]12CO[C@@H]1C[C@H](O)[C@@]1(C)C(=O)[C@H](O)C3=C(C)[C@@H](OC(=O)[C@H](O)[C@@H](NC(=O)OC(C)(C)C)c4ccccc4)C[C@@](O)([C@@H](OC(=O)c4ccccc4)[C@H]21)C3(C)C [docetaxel]
Aggregation by DLLS (correlation coefficient function) (50 μg/ml in water): presence of aggregates
Aggregation by DLLS (correlation coefficient function) (50 μg/ml in water plus triacetin 10 mg/ml): greatly reduces supramolecular aggregation
Aggregation by DLLS (correlation coefficient function) (50 μg/ml in water plus triacetin 30 mg/ml): totally eliminates the presence of molecular aggregates
